The values that follow come from patent publication US11407721B2, “CIS-morpholinone and other compounds as MDM2 inhibitors for the treatment of cancer” (AMGEN INC., priority 2013, dated 2022).

Experiment [1] addresses interaction between HDM2 and p53 (GST-hMDM2 (1-188) / biotinylated-p53 (1-83)) (Homo sapiens (Human), UniProt Q00987). Put plainly: HTRF2 Assay (improved HTRF assay). It is filed as binding.
The target in experiment [2] is T1, interaction between HDM2 and p53 (GST-hMDM2 / biotinylated-p53) (Homo sapiens (Human), UniProt Q00987). Conditions: read-out: HTRF3 IC50; HTRF1 conditions except 20 uL GST-hMDM2 incubated with 1.0 ul diluted compound.
Experiment [3] has as its target T1, interaction between HDM2 and p53 (GST-hMDM2 / biotinylated-p53). As to the kind of experiment: biochemical.
Experiment [4] addresses interaction between HDM2 and p53 (GST-hMDM2 aa 1-188 / biotinylated-p53 aa 1-83) (Homo sapiens (Human), UniProt Q00987).
The mark [5] stands for this setting: 0.2 nM GST-hMDM2 (1-188), 0.5 nM biotinylated-p53 (1-83), 100 mM KF, read-out: HTRF2 IC50.

Read-outs that look alike come from different tables or passages of the source. A value given as a limit tells only on which side of the number the result lay.

In general, IC50 refers to the midpoint of a concentration-inhibition curve.

Chain of interaction between HDM2 and p53 (GST-hMDM2 (1-188) / biotinylated-p53 (1-83)) (Q00987 1-188): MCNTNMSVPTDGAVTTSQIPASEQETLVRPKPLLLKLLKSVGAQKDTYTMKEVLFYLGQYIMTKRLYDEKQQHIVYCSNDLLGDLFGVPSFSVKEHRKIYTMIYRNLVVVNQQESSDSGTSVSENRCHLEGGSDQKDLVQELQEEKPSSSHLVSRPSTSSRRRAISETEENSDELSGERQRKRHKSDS
T1 sequence (Q00987 1-188): as above
Chain of interaction between HDM2 and p53 (GST-hMDM2 aa 1-188 / biotinylated-p53 aa 1-83) (Q00987 1-188): as above

As for `CN(C)C(=O)C[C@H]1O[C@H](c2cccc(Cl)c2)[C@H](c2ccc(Cl)cc2)N(CC2CC2)C1=O`, the figures for the IC50 in experiment [1] (setting [5]) and in experiment [2] were 7.56 µM and 2.78 µM, respectively.
In the case of `CS(=O)(=O)OCC[C@H]1O[C@H](c2cccc(Cl)c2)[C@H](c2ccc(Cl)cc2)N(CC2CC2)C1=O`, the IC50 in experiment [1] (setting [5]) worked out at 4.81 µM; in experiment [2], 6.86 µM.
Turning to `CCC[C@H](C(=O)N1CCN(CCC(=O)O)CC1)N1C(=O)CO[C@@H](c2ccc(Cl)cc2)[C@H]1c1ccc(Cl)cc1`, the IC50 was 3.6 µM in experiment [1] (setting [5]) and 4.59 µM in experiment [2].
Regarding `CN1C(=O)[C@@H](Cc2cccc(C(N)=O)c2)O[C@H](c2ccc(Cl)cc2)[C@@H]1c1ccc(Cl)cc1`, the IC50 in experiment [1] (setting [5]) amounted to 7.39 µM; in experiment [2], 12.4 µM.
The like results for `CN1C(=O)[C@@H](Cc2ccc(C(N)=O)cc2)O[C@H](c2ccc(Cl)cc2)[C@@H]1c1ccc(Cl)cc1` were, in that order, 3.66 µM and 5.8 µM.
`CN1C(=O)CO[C@@H](c2ccc(Cl)cc2)[C@H]1c1ccc(Cl)cc1` (mixture of isomers) [(5R,6S)-5,6-Bis(4-chlorophenyl)-4-methylmorpholin-3-one and (5S,6R)-5,6-bis(4-chlorophenyl)-4-methylmorpholin-3-one]: the IC50 in experiment [3] stood at 38.6 µM; in experiment [4] it was 11.8 µM.
For the compound `CCC[C@H](CN)N1C(=O)CO[C@@H](c2ccc(Cl)cc2)[C@H]1c1ccc(Cl)cc1` [(5R,6S)-4-((1R)-1-(aminomethyl)butyl)-5,6-bis(4-chlorophenyl)-3-morpholinone], the IC50 in experiment [3] was determined as 6.88 µM; in experiment [1] (setting [5]), 6.09 µM.
For the compound `O=C1CO[C@@H](c2ccc(Cl)cc2)[C@@H](c2ccc(Cl)cc2)N1c1cccnc1` [(5R,6S)-5,6-bis(4-chlorophenyl)-4-(3-pyridinyl)-3-morpholinone], the IC50 in experiment [3] came out at 23.9 µM; in experiment [1] (setting [5]), 29.6 µM.
As to `O=C1CO[C@@H](c2ccc(Cl)cc2)[C@@H](c2ccc(Cl)cc2)N1c1ccncc1` [(5R,6S)-5,6-bis(4-chlorophenyl)-4-(4-pyridinyl)-3-morpholinone], the IC50 came to 24.2 µM in experiment [3] and 16.8 µM in experiment [1] (setting [5]).
The like results for `O=C1CO[C@@H](c2ccc(Cl)cc2)[C@@H](c2ccc(Cl)cc2)N1c1ccccc1` [(5R,6S)-5,6-bis(4-chlorophenyl)-4-phenyl-3-morpholinone] were, in that order, more than 100 µM and 31.6 µM.
`CC(C)N1C(=O)CS(=O)(=O)[C@@H](c2cccc(Cl)c2)[C@H]1c1ccc(Cl)cc1` [(5R,6S)-6-(3-chlorophenyl)-5-(4-chlorophenyl)-4-(1-methylethyl)-3-thiomorpholinone 1,1-dioxide] returned an IC50 in experiment [4] of 1.56 µM.
Consider `O=C1CS(=O)(=O)[C@@H](c2cccc(Cl)c2)[C@@H](c2ccc(Cl)cc2)N1CC1CC1` [(5R,6S)-6-(3-chlorophenyl)-5-(4-chlorophenyl)-4-(cyclopropylmethyl)-3-thiomorpholinone 1,1-dioxide], for which the 50% inhibitory concentration (IC50) is 22.4 µM in experiment [1] (setting [5]) and 4.76 µM in experiment [4].
On to `O=C1CO[C@@H](c2cccc(Cl)c2)[C@@H](c2ccc(Cl)cc2)N1C1CCCC1` [(5R,6S)-6-(3-chlorophenyl)-5-(4-chlorophenyl)-4-cyclopentyl-3-morpholinone], for which the IC50 was found to be 16.6 µM in experiment [3] and 10 µM in experiment [1] (setting [5]).
As to `CC(C)N1C(=O)CO[C@H](c2ccc(Br)cc2)[C@@H]1c1ccc(Br)cc1` [(5S,6R)-5,6-bis(4-bromophenyl)-4-(1-methylethyl)-3-morpholinone], the IC50 in experiment [3] is 24.6 µM; in experiment [1] (setting [5]), more than 100 µM.
On to `CCC[C@H](c1nnn[nH]1)N1C(=O)[C@H](Cc2ccc(C#N)c(F)c2)O[C@@H](c2ccc(Cl)cc2)[C@H]1c1ccc(Cl)cc1` [Example 35, 4-(((2S,5R,6S)-4-((R)-1-(1H-Tetrazol-5-yl)butyl)-5,6-bis(4-chlorophenyl)-3-oxomorpholin-2-yl)methyl)-2-fluorobenzonitrile], for which the results for the IC50 in experiment [1] (setting [5]) and in experiment [2] were 0.473 µM and 0.403 µM, respectively.
As to `CCC[C@H](C(=O)NCC(=O)O)N1C(=O)[C@H](Cc2ccc(C#N)c(F)c2)O[C@@H](c2ccc(Cl)cc2)[C@H]1c1ccc(Cl)cc1` [N-((2R)-2-((2S,3R,6S)-2,3-bis(4-chlorophenyl)-6-(4-cyano-3-fluorobenzyl)-5-oxo-4-morpholinyl)pentanoyl)glycine], the IC50 in experiment [3] stood at 0.39 µM; in experiment [1] it was 0.517 µM.
Take “(2R,5S,6R)-5,6-Bis(4-chlorophenyl)-4-methyl-2-(pyridin-4-ylmethyl)morpholin-3-one and (2S,5R,6S)-5,6-bis(4-chlorophenyl)-4-methyl-2-(pyridin-4-ylmethyl)morpholin-3-one [Example 41]”: the IC50 in experiment [1] (setting [5]) was 4.53 µM; in experiment [2] it was 5.6 µM.
